Assay results taken from patent publication US5369112A, “Method of treating cataracts caused by active oxygen” (Mitsubishi Gas Chemical Company, Inc., priority 1991, dated 1994).
Like-named read-outs stand apart in the source and are kept apart here. Each block holds one compound with its values, some of them ahead of it.

Tests used:
[1] = Superoxide scavenging activity (hypoxanthine-xanthine oxidase, DMPO spin trapping, ESR); format: biochemical; conditions: pH 7.3, read-out: O2^- scavenging activity IC50
Text: Activity of PQQ esters to scavenge superoxide (O2^-) produced in the system of hypoxanthinexanthine oxidase was examined by spin trapping method [using 5,5-dimethyl-l-pyrroline-N-oxide (hereinafter referred to as "DMPO") as a spin trapping agent] where electron spin resonance (hereinafter referred to as "ESR") was used.
Hypoxanthine+2O2 →2O2^- +uric acid (xanthine oxidase)
The following reagents were successively put in a test tube and stirred after addition of the hypoxanthine 7 to initiate the reaction and the reaction mixture was transferred to a quartz cell used for measurement of ESR.
Superoxide scavenging activity of OPQ and esters thereof was examined in the same manner as in Example 1.

[2] = Hydroxy radical scavenging activity (H2O2-(Fe^2+-DTPA), DMPO spin trapping, ESR); format: biochemical; conditions: pH 7.3, read-out: .OH scavenging activity IC50
Text: Activity of PQQ esters to scavenge hydroxy radical (·OH) produced in the system of H2 O2 --(Fe^2+ -DTPA) was examined by spin trapping method [using 5,5-dimethyl-1-pyrroline-N-oxide (hereinafter referred to as "DMPO") as a spin trapping agent] where electron spin resonance (hereinafter referred to as "ESR") was used. DTPA means diethylenetriamine-pentaacetic acid.
H2 O2 +Fe^2 -DTPA complex→·OH+OH^-
The following reagents were successively put in a test tube and stirred after addition of H2 O2 6 to initiate the reaction and the reaction mixture was transferred to a quartz cell used for measurement of ESR.
Hydroxy radical scavenging activity of OPQ and esters thereof was examined in the same manner as in Example 3.

mice [3] = conditions: mouse, in vivo, ip
Experimental: One group consisted of 8 mice. For administration, PQQ·2Na and OPQ and esters thereof were dissolved in physiological saline and PQQ trimethyl ester and PQQ triallyl ester were suspended in 1% Tween 80-containing physiological saline, respectively.
PQQ·2Na, PQQ trimethyl ester, PQQ triallyl ester and OPQ and esters thereof were intraperitoneally administered to mice and they were bred in the same manner as in the above acute toxicity test. Urine of the mice was taken every day and glucose concentration was measured using clinical examination reagent (trademark: […] 2 manufactured by Miles.Sankyo Co.).

mice [4] = test: Kidney Toxicity Determined by Blood Examination (1); format: in vivo; conditions: mouse serum
Experimental: After lapse of one day from the administration, the mice were fasted (with feeding only water) and then after 18 hours, blood was collected and serum was obtained therefrom. Glucose, urea nitrogen and creatinine in the serum were examined by clinical examination reagent (trademark: FUJI DRYCHEMSLIDE manufactured by Fuji Photo Film Co., Ltd.).

Compound: NC(=O)CCc1nc2c3nc(C(=O)O)cc(C(=O)O)c3c3[nH]c(C(=O)O)cc3c2o1 [2-Carbamoylethyl OPQ, 2-carbamoylethyl OPQ (R=CH2 CH2 CONH2)]
IC50 ([1]; Example 2, Table 7): 3.2 µM | IC50 ([2]; Example 4, Table 9): 194 µM

Compound: CC(C)c1nc2c3nc(C(=O)O)cc(C(=O)O)c3c3[nH]c(C(=O)O)cc3c2o1 [1-Methylethyl OPQ, 1-methylethyl OPQ (R=CH(CH3)2)]
IC50 ([1]; Example 2, Table 7): 3.14 µM | IC50 ([2]; Example 4, Table 9): 200 µM

Compound: CC(C)Cc1nc2c3nc(C(=O)O)cc(C(=O)O)c3c3[nH]c(C(=O)O)cc3c2o1 [2-Methylpropyl OPQ, 2-methylpropyl OPQ (R=CH2 CH(CH3)2)]
IC50 ([1]; Example 2, Table 7): 4.88 µM | IC50 ([2]; Example 4, Table 9): 421 µM

Compound: O=C(O)c1cc(C(=O)O)c2c(n1)c1nc(Cc3ccc(O)cc3)oc1c1cc(C(=O)O)[nH]c12 [4-Hydroxyphenylmethyl OPQ, 4-hydroxyphenylmethyl OPQ]
IC50 ([1]; Example 2, Table 7): 4.12 µM | IC50 ([2]; Example 4, Table 9): 314 µM

Compound: CSCCc1nc2c3nc(C(=O)O)cc(C(=O)O)c3c3[nH]c(C(=O)O)cc3c2o1 [2-Methylthioethyl OPQ, 2-methylthioethyl OPQ (R= CH2 CH2 SCH3)]
glucose in urine (mice [3]; 20 mg/kg): - | glucose in urine (mice [3]; 40 mg/kg): - | glucose in urine (mice [3]; 80 mg/kg): - | glucose in urine (mice [3]; 160 mg/kg): - | glucose in urine (mice [3]; 200 mg/kg): - | Creatinine (mice [4]; 40 mg/kg): 0.76 ± 0.05 mg/dL | Glucose (mice [4]; 40 mg/kg): 96 ± 26 mg/dL | Urea nitrogen (mice [4]; 40 mg/kg): 26 ± 4 mg/dL | Creatinine (mice [4]; 80 mg/kg): 0.68 ± 0.08 mg/dL | Glucose (mice [4]; 80 mg/kg): 88 ± 29 mg/dL | Urea nitrogen (mice [4]; 80 mg/kg): 26 ± 5 mg/dL | Creatinine (mice [4]; 160 mg/kg): 0.64 ± 0.05 mg/dL | Glucose (mice [4]; 160 mg/kg): 97 ± 22 mg/dL | Urea nitrogen (mice [4]; 160 mg/kg): 26 ± 3 mg/dL | Creatinine (mice [4]; 200 mg/kg): 0.73 ± 0.06 mg/dL | Glucose (mice [4]; 200 mg/kg): 72 ± 16 mg/dL | Urea nitrogen (mice [4]; 200 mg/kg): 26 ± 2 mg/dL | IC50 ([1]; Example 2, Table 7): 3.94 µM | IC50 ([2]; Example 4, Table 9): 200 µM

Now from value to compound:

IC50 ([1]; Example 1, Table 6): 0.0769 µM | IC50 ([2]; Example 3, Table 8): 31 µM
Compound: O=C(OCc1ccccc1)c1cc(C(=O)OCc2ccccc2)c2c(n1)C(=O)C(=O)c1cc(C(=O)OCc3ccccc3)[nH]c1-2 [PQQ tribenzyl ester]

IC50 ([1]; Example 2, Table 7): 2.39 µM
Compound: C=CCOC(=O)c1cc(C(=O)OCC=C)c2c(n1)c1ncoc1c1cc(C(=O)OCC=C)[nH]c12 [OPQ triallyl ester]

IC50 ([1]; Example 1, Table 6): 0.0609 µM
Compound: PQQ monomethyl ester
